Test results taken from article PMC4891657, “Orexin 2 Receptor Antagonism is Sufficient to Promote NREM and REM Sleep from Mouse to Man” (Scientific Reports, 2016).
Where a chain is given by its changes, count along the chain named.

Experiments:
OX2R [1] = molecular target: T1, OX2R (Mus musculus, UniProt P58308); experiment: Radio-ligand displacement binding, CHO-K1 membranes, mouse OX2R; conditions: for fold OX2R selectivity (Ki): OX1R Ki / OX2R Ki; for Ki: read-out: OX2R affinity (Ki)
T1 construct: expressed in transfected cells; host or cells: CHO-K1
T1 sequence (P58308 1-460): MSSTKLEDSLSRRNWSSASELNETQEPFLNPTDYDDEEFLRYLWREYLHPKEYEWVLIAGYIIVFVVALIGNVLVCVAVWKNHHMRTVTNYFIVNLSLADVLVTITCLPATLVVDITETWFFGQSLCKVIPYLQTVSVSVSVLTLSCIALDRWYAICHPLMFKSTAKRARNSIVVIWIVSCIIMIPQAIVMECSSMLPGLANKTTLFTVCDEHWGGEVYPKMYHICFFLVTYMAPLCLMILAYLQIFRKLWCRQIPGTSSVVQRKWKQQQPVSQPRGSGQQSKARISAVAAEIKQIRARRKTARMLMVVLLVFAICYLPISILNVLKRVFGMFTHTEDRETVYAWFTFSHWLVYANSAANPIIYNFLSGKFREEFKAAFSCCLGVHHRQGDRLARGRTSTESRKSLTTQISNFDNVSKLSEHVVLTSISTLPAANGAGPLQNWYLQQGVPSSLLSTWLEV
Procedure: (§1) MK-1064 was evaluated for its ability to inhibit orexin-peptide-A-induced calcium mobilization in CHO cell lines separately expressing OX1R and OX2R from mice, rats, rabbits, dogs, rhesus monkeys and humans.
(§2) Binding and functional blockade of OX1R and OX2R with MK-1064 relative to other 2-SORAs and the DORA, MK-6096, were assessed using membranes from Chinese hamster ovary (CHO)-K1 cells (American Type Tissue Collection, Manassas, VA) transfected to express human, mouse, rat, rabbit, dog, or rhesus monkey OX1R or OX2R receptors, as described previously. The kinetics of binding to human OX2R was assessed by radioligand displacement on CHO-K1 cells expressing the receptor. […] The ON rate analysis was performed by presoaking GF/B filters in 0.3% polyethyleneimine (Sigma) using a Skatron 12-well cell harvester and cold buffer at the indicated time points after addition. For OFF rate determination, binding reactions were allowed to proceed to equilibrium and terminated with 1000x [Kd] of unlabeled antagonist and filtered as above at pre-determined time points. Ultima Gold^TM (PerkinElmer 6013327) scintillation cocktail was added to each filter disc and counted on a PerkinElmer TriCarb 2910 scintillation counter. Data were analyzed using GraphPad® Prism v 6.04 (San Diego, CA, USA). The KON rate was determined according to the equation, KON = (KOBS − KOFF)/[ligand].

OX1R [2] = molecular target: T2, OX1R (Rattus norvegicus, UniProt P56718); experiment: Inhibition of orexin-peptide-A-induced calcium mobilization in CHO cells, rat OX1R; format: cell-based
T2 construct: expressed in transfected cells; host or cells: CHO-K1
T2 sequence (P56718 1-416): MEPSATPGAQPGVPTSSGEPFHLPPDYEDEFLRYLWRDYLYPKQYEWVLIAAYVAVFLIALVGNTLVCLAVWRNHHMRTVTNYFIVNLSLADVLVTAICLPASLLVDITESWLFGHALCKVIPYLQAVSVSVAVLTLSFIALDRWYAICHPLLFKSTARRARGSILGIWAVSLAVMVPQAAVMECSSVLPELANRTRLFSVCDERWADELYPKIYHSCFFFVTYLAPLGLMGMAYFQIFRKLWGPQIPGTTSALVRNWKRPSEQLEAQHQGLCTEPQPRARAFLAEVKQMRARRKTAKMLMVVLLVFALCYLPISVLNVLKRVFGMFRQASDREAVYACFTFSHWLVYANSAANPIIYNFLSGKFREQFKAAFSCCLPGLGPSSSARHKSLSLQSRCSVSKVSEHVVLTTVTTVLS
Procedure: as §1, §2

OX2R [3] = molecular target: T3, OX2R (Canis lupus familiaris, UniProt Q9TUP7); experiment: Inhibition of orexin-peptide-A-induced calcium mobilization in CHO cells, dog OX2R; format: cell-based; conditions: for fold OX2R selectivity (Kb): OX1R Kb / OX2R Kb
T3 construct: expressed in transfected cells; host or cells: CHO-K1
T3 sequence (Q9TUP7 1-444): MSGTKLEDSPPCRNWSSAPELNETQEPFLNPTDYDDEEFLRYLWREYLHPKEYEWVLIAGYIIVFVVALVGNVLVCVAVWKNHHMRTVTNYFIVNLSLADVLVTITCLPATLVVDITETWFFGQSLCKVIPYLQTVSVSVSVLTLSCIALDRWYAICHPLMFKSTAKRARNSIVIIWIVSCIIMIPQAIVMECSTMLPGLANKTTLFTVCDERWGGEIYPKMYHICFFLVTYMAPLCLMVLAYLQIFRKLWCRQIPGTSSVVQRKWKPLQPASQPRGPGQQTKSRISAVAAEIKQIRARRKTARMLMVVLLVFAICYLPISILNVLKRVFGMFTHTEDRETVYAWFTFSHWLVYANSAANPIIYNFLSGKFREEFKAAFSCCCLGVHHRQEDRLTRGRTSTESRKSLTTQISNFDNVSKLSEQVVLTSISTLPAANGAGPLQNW
Procedure: as §1, §2

OX1R [4] = molecular target: T4, OX1R (Canis lupus familiaris, UniProt A0A8I3RSX8); experiment: Inhibition of orexin-peptide-A-induced calcium mobilization in CHO cells, dog OX1R; format: cell-based
T4 sequence (A0A8I3RSX8 1-427): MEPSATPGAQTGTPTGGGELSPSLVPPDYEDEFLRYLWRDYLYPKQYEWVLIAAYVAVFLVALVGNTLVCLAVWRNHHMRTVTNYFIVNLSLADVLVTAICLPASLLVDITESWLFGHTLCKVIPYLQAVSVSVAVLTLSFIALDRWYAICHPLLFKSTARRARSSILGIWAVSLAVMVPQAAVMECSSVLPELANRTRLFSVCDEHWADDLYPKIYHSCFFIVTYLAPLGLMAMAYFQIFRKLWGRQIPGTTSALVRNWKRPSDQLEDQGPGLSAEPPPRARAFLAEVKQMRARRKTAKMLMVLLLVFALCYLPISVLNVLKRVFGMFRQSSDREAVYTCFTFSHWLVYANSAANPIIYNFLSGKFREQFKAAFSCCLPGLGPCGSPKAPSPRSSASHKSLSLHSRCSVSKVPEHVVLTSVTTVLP
Procedure: as §1, §2

OX2R [5] = molecular target: T5, OX2R (Rattus norvegicus, UniProt P56719); experiment: Inhibition of orexin-peptide-A-induced calcium mobilization in CHO cells, rat OX2R; format: cell-based; conditions: for fold OX2R selectivity (Kb): OX1R Kb / OX2R Kb
T5 construct: expressed in transfected cells; host or cells: CHO-K1
T5 sequence (P56719 1-460): T1 sequence (P58308 1-460) with S11P, C193R, H213R, I240V, Q269P, H387R, V424A
Procedure: as §1, §2

SMILES	fold OX2R selectivity (Ki) (OX2R [1])	Ki (OX2R [1])	Kb (OX1R [2])	Kb (OX2R [3])	fold OX2R selectivity (Kb) (OX2R [3])	Kb (OX1R [4])	Kb (OX2R [5])	fold OX2R selectivity (Kb) (OX2R [5])
COc1ccc(CNC(=O)c2cc(-c3cncc(C)c3)ncc2-c2ccccc2)nc1OC [2-SORA-7]	[2040] fold	0.83 nM	58300 nM	13 nM	[>769] fold	> 10000 nM	18 nM	[3238] fold
COc1ccc(CNC(=O)c2cc(-c3cc(Cl)cc(Cl)c3)cnc2-c2cccnc2)cc1OC [2-SORA-18]	[653] fold	0.15 nM	1050 nM	27 nM	[3] fold	87 nM	21 nM	[50] fold
COc1ccc(CNC(=O)c2cc(-c3cncc(Cl)c3)cnc2-c2ccccn2)nc1OC [MK-1064, 5″-chloro-N-[(5,6-dimethoxypyridin-2-yl)methyl]-2,2′:5′, 3″-terpyridine-3′-carbo xamide]	[1136] fold	1.02 nM	7970 nM	11 nM	[337] fold	3700 nM	13 nM	[613] fold
COc1ccc(CNC(=O)c2cc(-c3cncc(C)c3)ncc2-c2nccs2)nc1OC [MK-3697]		1.47 nM	36400 nM	16 nM		> 10000 nM	31 nM	
Cc1ccc(-c2ncccn2)c(C(=O)N2C[C@H](COc3ccc(F)cn3)CC[C@H]2C)c1 [MK-6096]	[5.2] fold	0.56 nM	10 nM	10 nM	[1.0] fold	10 nM	22 nM	[0.5] fold
